Structures are written as SMILES. ≈ marks a conversion by molar mass, not a printed value. Calls of active or inactive are those of the source. No cut-off for these calls is given here.

The subject of assay [1] is Saccharomyces cerevisiae. The experiment in a line: Antimicrobial activity against Saccharomyces cerevisiae MTCC 170 at 2 mg/ml after 24 hr by agar well diffusion method. The format is functional. The note with it: for zone of inhibition at 2000 µg/mL: MTCC 170, 24 h, read-out: DIZ.
For the next assay, the system named is Pseudomonas aeruginosa. The assay can be described thus: Antimicrobial activity against Pseudomonas aeruginosa MTCC 741 at 2 mg/ml after 24 hr by agar well diffusion method. It counts as functional, organism-based.
Assay [2] has as its system Candida albicans. The assay can be described thus: Antimicrobial activity against Candida albicans MTCC 227 at 2 mg/ml by agar well diffusion method. The format is functional. The note with it: for zone of inhibition at 2000 µg/mL: read-out: DIZ.
In assay [3] the test system is Candida albicans. The assay can be described thus: Antimicrobial activity against Candida albicans MTCC 227 at 2 mg/ml by two-fold serial dilution method. The format is functional.
The test system of assay [4] is Saccharomyces cerevisiae. The experiment in a line: Antimicrobial activity against Saccharomyces cerevisiae MTCC 170 after 24 hr by two-fold serial dilution method. It counts as functional.
In assay [5] the test system is Staphylococcus aureus. The assay can be described thus: Antimicrobial activity against Staphylococcus aureus MTCC 96 at 2 mg/ml after 24 hr by agar well diffusion method. The note with it: MTCC 96, 24 h, read-out: DIZ. It counts as functional.
In assay [6] the test system is Bacillus subtilis. The experiment in a line: microbe, parasite or virus in culture. It counts as functional. The note with it: MTCC 121, 24 h, read-out: DIZ.
Description: Antimicrobial activity against Bacillus subtilis MTCC 121 at 2 mg/ml after 24 hr by agar well diffusion method
Assay [7] deals with Staphylococcus aureus. The experiment in a line: Antimicrobial activity against Staphylococcus aureus MTCC 96 after 24 hr by two-fold serial dilution method. The format is functional. The note with it: MTCC 96, 24 h.
The test system of assay [8] is Bacillus subtilis. The experiment in a line: microbe, parasite or virus in culture. The format is functional. The note with it: MTCC 121, 24 h.
Description: Antimicrobial activity against Bacillus subtilis MTCC 121 at 2 mg/ml after 24 hr by two-fold serial dilution method
The subject of a further assay is Escherichia coli. The assay can be described thus: Antimicrobial activity against Escherichia coli MTCC 1652 at 2 mg/ml after 24 hr by agar well diffusion method. It counts as functional, organism-based.

For the compound `CCc1nnc2n1N=C(c1ccc(Cl)cc1)C(OC)S2` (stereo not drawn), the zone of inhibition at 2000 µg/mL with Saccharomyces cerevisiae [1] turned out to be 12.6 mm; in the assay on Candida albicans [2], 13 mm; in the assay with Staphylococcus aureus [5] it was 19.3 mm; in the assay on Bacillus subtilis [6] it was 16.3 mm. Besides, the result with Pseudomonas aeruginosa and with Escherichia coli was inactive. The MIC in the assay on Candida albicans [3] came to 128 µg/mL (≈ 415 µM); in the assay on Saccharomyces cerevisiae [4] (MTCC 170, 24 h), 128 µg/mL (≈ 415 µM); with Staphylococcus aureus [7] it was 64 µg/mL (≈ 207 µM); against Bacillus subtilis [8] it was 128 µg/mL (≈ 415 µM).
In the case of `C[C@@H]1[C@H](O)[C@@H](C)/C=C/C=C/C=C/C=C/C=C/C=C/C=C/[C@H](O[C@@H]2O[C@H](C)[C@@H](O)[C@H](N)[C@@H]2O)C[C@@H]2O[C@](O)(C[C@@H](O)C[C@@H](O)[C@H](O)CC[C@@H](O)C[C@@H](O)CC(=O)O[C@H]1C)C[C@H](O)[C@H]2C(=O)O` [AMPHOTERICIN B], the zone of inhibition at 2000 µg/mL in the assay with Saccharomyces cerevisiae [1] came out at 13.6 mm; with Candida albicans [2] it was 14.3 mm. The MIC turned out to be 100 µg/mL (≈ 108 µM) against Candida albicans [3] and 100 µg/mL (≈ 108 µM) against Saccharomyces cerevisiae [4] (MTCC 170, 24 h).
With `CCc1nnc2n1N=C(c1ccccc1)C(OC(C)C)S2` (stereo not drawn), the “diameter of the inhibition zone (DIZ)” value in the assay on Saccharomyces cerevisiae [1] and in the assay on Candida albicans [2] was “inactive” throughout. Further, the result in the assay with Pseudomonas aeruginosa and in the assay on Escherichia coli was inactive. Moreover, the MIC entry in the assay on Candida albicans [3] and in the assay with Saccharomyces cerevisiae [4] was “inactive” each time. Also, the zone of inhibition at 2000 µg/mL in the assay with Staphylococcus aureus [5] turned out to be 13.6 mm; in the assay with Bacillus subtilis [6], 12.3 mm. The MIC in the assay on Staphylococcus aureus [7] is 256 µg/mL (≈ 847 µM); in the assay on Bacillus subtilis [8], greater than 256 µg/mL.
As to `CCCOC1Sc2nnc(CC)n2N=C1c1ccccc1` (stereo not drawn), the “diameter of the inhibition zone (DIZ)” value in the assay with Saccharomyces cerevisiae [1] and in the assay on Candida albicans [2] was “inactive” in each case. Besides, the result in the assay on Pseudomonas aeruginosa and with Escherichia coli was inactive. The MIC result in the assay with Candida albicans [3] and with Saccharomyces cerevisiae [4] was “inactive” in each case. Moreover, the zone of inhibition at 2000 µg/mL in the assay on Staphylococcus aureus [5] was 14 mm; in the assay on Bacillus subtilis [6] it was 13.6 mm. Also, the MIC against Staphylococcus aureus [7] and against Bacillus subtilis [8] was 256 µg/mL (≈ 847 µM) each time.
For `CC(C)OC1Sc2nnc(-c3ccccc3)n2N=C1c1ccccc1` (stereo not drawn), the zone of inhibition at 2000 µg/mL with Saccharomyces cerevisiae [1] was 13.3 mm; in the assay with Staphylococcus aureus [5], 18.3 mm; in the assay with Bacillus subtilis [6], 15.6 mm. In addition, the result in the assay on Pseudomonas aeruginosa and with Escherichia coli was inactive. Besides, in the assay with Candida albicans [2], the “diameter of the inhibition zone (DIZ)” value is “inactive”. Moreover, the MIC entry with Candida albicans [3] was “inactive”. Further, the MIC against Saccharomyces cerevisiae [4] (MTCC 170, 24 h) amounted to 128 µg/mL (≈ 365 µM); with Staphylococcus aureus [7], 128 µg/mL (≈ 365 µM); against Bacillus subtilis [8], 256 µg/mL (≈ 730 µM).
Take `CCCOC1Sc2nnc(CCC)n2N=C1c1ccccc1` (stereo not drawn): the zone of inhibition at 2000 µg/mL in the assay with Saccharomyces cerevisiae [1] turned out to be 15.3 mm; in the assay with Staphylococcus aureus [5], 13.6 mm; with Bacillus subtilis [6], 16.3 mm. Also, the outcome in the assay with Pseudomonas aeruginosa and in the assay on Escherichia coli was inactive. For the same compound, in the assay with Candida albicans [2], the “diameter of the inhibition zone (DIZ)” value was “inactive”. Moreover, in the assay with Candida albicans [3], the MIC result is “inactive”. Also, the MIC against Saccharomyces cerevisiae [4] (MTCC 170, 24 h) stood at 64 µg/mL (≈ 202 µM); in the assay on Staphylococcus aureus [7] it was 256 µg/mL (≈ 809 µM); in the assay on Bacillus subtilis [8] it was 128 µg/mL (≈ 405 µM).
Consider `CCOC1Sc2nnc(CC)n2N=C1c1ccc(Br)cc1` (stereo not drawn), for which the “diameter of the inhibition zone (DIZ)” value in the assay on Saccharomyces cerevisiae [1] and in the assay with Candida albicans [2] was “inactive” throughout. The result with Pseudomonas aeruginosa and in the assay on Escherichia coli was inactive. For the same compound, the MIC entry with Candida albicans [3] and in the assay with Saccharomyces cerevisiae [4] was “inactive” each time. Further, the zone of inhibition at 2000 µg/mL is 12.3 mm in the assay on Staphylococcus aureus [5] and 13.6 mm with Bacillus subtilis [6]. Further, the figures for the MIC in the assay with Staphylococcus aureus [7] and against Bacillus subtilis [8] were greater than 256 µg/mL and 256 µg/mL (≈ 697 µM), respectively.
Regarding `O=C(O)c1cn(C2CC2)c2cc(N3CCNCC3)c(F)cc2c1=O` [CIPROFLOXACIN], the results for the zone of inhibition at 2000 µg/mL in the assay with Staphylococcus aureus [5] and in the assay on Bacillus subtilis [6] were 26.6 mm and 24 mm, respectively. Besides, the MIC in the assay on Staphylococcus aureus [7] and with Bacillus subtilis [8] was 5 µg/mL (≈ 15.1 µM) each time.

The record behind these values is ChEMBL document CHEMBL3046925, “,-Dibromoacetophenones mediated synthesis of some new 7H-7-alkoxy-3-alkyl/phenyl-6-aryl-s-triazolo[3,4-b][1,3,4]thiadiazines and their antimicrobial evaluation” (2012).
